Experimental data taken from the NIST ThermoML archive (doi:10.1016/j.tca.2004.08.013).

Test: xn = mol fraction of the nth substance listed
Details: 101.3 kPa, Liquid

CCCN [propan-1-amine] + ClC(Cl)(Cl)Cl
Details	mass density, 303.15 K [kg/m3]	mass density, 313.15 K [kg/m3]	viscosity, 303.15 K [mPa·s]	viscosity, 313.15 K [mPa·s]
x1 = 0.0071	1569.84	1550.16	0.859	0.761
x1 = 0.0184	1561.86	1542.3	0.866	0.763
x1 = 0.0285	1554.57	1535.07	0.873	0.764
x1 = 0.0386	1547.37	1527.92	0.876	0.765
x1 = 0.0479	1540.78	1521.37	0.88	0.768
x1 = 0.0574	1533.92	1514.52	0.885	0.77
x1 = 0.0661	1527.48	1508.11	0.885	0.772
x1 = 0.0748	1521.24	1501.94	0.888	0.774
x1 = 0.0841	1514.3	1495.14	0.892	0.775

CCCN [propan-1-amine] + ClC(Cl)Cl
Details	mass density, 303.15 K [kg/m3]	mass density, 313.15 K [kg/m3]	viscosity, 303.15 K [mPa·s]	viscosity, 313.15 K [mPa·s]
x1 = 0.01	1463.1	1441.12	0.523	0.474
x1 = 0.0207	1454.77	1433.07	0.526	0.478
x1 = 0.0296	1447.98	1426.56	0.529	0.481
x1 = 0.0426	1437.89	1416.8	0.533	0.485
x1 = 0.0491	1432.95	1411.95	0.536	0.488
x1 = 0.0595	1424.84	1403.97	0.539	0.491
x1 = 0.0689	1417.67	1396.96	0.542	0.495
x1 = 0.0796	1409.35	1388.75	0.544	0.496
x1 = 0.096	1396.86	1376.41	0.548	0.5

CCCCN(CCCC)CCCC [tributylamine] + ClC(Cl)Cl
Details	mass density, 303.15 K [kg/m3]	mass density, 313.15 K [kg/m3]	viscosity, 303.15 K [mPa·s]	viscosity, 313.15 K [mPa·s]
x1 = 0.0102	1450.1	1428.49	0.533	0.479
x1 = 0.0205	1430.19	1409.15	0.545	0.488
x1 = 0.0308	1410.92	1390.4	0.557	0.496
x1 = 0.0404	1393.58	1373.58	0.569	0.504
x1 = 0.0505	1376.08	1356.5	0.583	0.513
x1 = 0.0598	1360.44	1341.35	0.593	0.522
x1 = 0.0695	1344.77	1326.07	0.606	0.529
x1 = 0.0799	1328.42	1310.05	0.615	0.538
x1 = 0.0856	1319.72	1301.56	0.621	0.545

CCN(CC)CC [triethylamine] + C1COCCO1
303.15 K
Details	mass density [kg/m3]	viscosity [mPa·s]
x1 = 0.0138	1015.32	1.059
x1 = 0.0232	1010.65	1.042
x1 = 0.0349	1004.86	1.018
x1 = 0.0453	999.87	0.998
x1 = 0.0551	995.17	0.98
x1 = 0.0691	988.57	0.955
x1 = 0.0803	983.41	0.932
x1 = 0.0909	978.57	0.914
x1 = 0.1006	974.22	0.899
x1 = 0.1128	968.78	0.877

CCN(CC)CC [triethylamine] + CCC(C)=O
303.15 K
Details	mass density [kg/m3]	viscosity [mPa·s]
x1 = 0.011	798.96	0.362
x1 = 0.0217	798.22	0.36
x1 = 0.0315	797.6	0.357
x1 = 0.0413	796.87	0.355
x1 = 0.0508	796.32	0.353
x1 = 0.0597	795.5	0.351
x1 = 0.0697	794.8	0.347
x1 = 0.0801	794.25	0.344
x1 = 0.0915	793.37	0.341
x1 = 0.1022	792.79	0.338

CCN(CC)CC [triethylamine] + CCCCOC(C)=O
303.15 K
Details	mass density [kg/m3]	viscosity [mPa·s]
x1 = 0.0065	870.3	0.641
x1 = 0.0144	869.1	0.638
x1 = 0.0226	867.85	0.631
x1 = 0.0293	866.83	0.628
x1 = 0.0378	865.53	0.623
x1 = 0.0454	864.42	0.618
x1 = 0.0509	863.54	0.613
x1 = 0.0596	862.22	0.607
x1 = 0.0668	861.13	0.603
x1 = 0.0733	860.14	0.599
